# Assay results reported in patent publication US9962369B2, “Methods and compositions for transdermal delivery” (SPRAYABLE HOLDINGS, INC., priority 2014, dated 2018).
# Test: Transdermal delivery of melatonin: plasma level of melatonin after applying composition to skin of a subject
# Details: control 2.0 ml of […] melatonin suspension in water, plasma level at 1, 2, 4, 8 hours
# [1] = 0.375 mL of 7% helper ester + 0.8% melatonin in water on skin of the back (20 cm×20 cm)
# [2] = 0.60 mL of 7% helper ester + 0.5% melatonin in water on skin of the back (20 cm×20 cm)
# [3] = 0.3 mL of 7% helper ester + 1% melatonin in water on skin of the back (20 cm×20 cm)
SMILES,transdermal delivery of melatonin compared to control composition (A) [2],other results
CCCCN(CCCC)CCOC(=O)c1ccccc1OC(C)=O [2-(Dibutylamino)ethyl 2-acetoxybenzoate],,transdermal delivery of melatonin compared to control composition (A) [1]: more efficient and effective transdermal delivery of melatonin
CCN(CC)CCOC(=O)c1ccccc1OC(C)=O [2-(Diethylamino)ethyl 2-acetoxybenzoate],,transdermal delivery of melatonin compared to control composition (A) [1]: more efficient and effective transdermal delivery of melatonin
CC(C)Cc1ccc(C(C)C(=O)OCCN(C)C)cc1 (centres unmarked) [2-(Dimethylamino)ethyl 2-(4-isobutylphenyl)propionate],more efficient and effective transdermal delivery of melatonin,
CCN(CC)CCCOC(=O)c1ccccc1OC(C)=O [3-(Diethylamino)propyl 2-acetoxybenzoate],,transdermal delivery of melatonin compared to control composition (A) [1]: more efficient and effective transdermal delivery of melatonin
CCN(CC)CCCCOC(=O)C(C)c1ccc(CC(C)C)cc1 (centres unmarked) [4-(Diethylamino)butyl 2-(4-isobutylphenyl)propionate],more efficient and effective transdermal delivery of melatonin,
CCN(CC)CCCCCOC(=O)C(C)c1ccc(CC(C)C)cc1 (centres unmarked) [5-(Diethylamino)pentyl 2-(4-isobutylphenyl)propionate],more efficient and effective transdermal delivery of melatonin,
CC(=O)Oc1ccccc1C(=O)OCCCCCCN(C)C [6-(Dimethylamino)hexyl 2-acetoxybenzoate],,transdermal delivery of melatonin compared to control composition (A) [1]: more efficient and effective transdermal delivery of melatonin
CCCCCCOC(=O)[C@@H](N)[C@@H](C)CC [Isoleucine hexyl ester],more efficient and effective transdermal delivery of melatonin,
CC[C@H](C)[C@H](N)C(=O)OC(C)C [Isoleucine isopropyl ester],more efficient and effective transdermal delivery of melatonin,
CCCCCCOC(=O)[C@@H](N)CC(C)C [Leucine hexyl ester],more efficient and effective transdermal delivery of melatonin,
CC(C)C[C@H](N)C(=O)OC(C)C [Leucine isopropyl ester],more efficient and effective transdermal delivery of melatonin,
COC(=O)[C@@H](N)CC(C)C [Leucine methyl ester],more efficient and effective transdermal delivery of melatonin,
CC(C)OC(=O)[C@@H](N)Cc1ccccc1 [Phenylalanine isopropyl ester],more efficient and effective transdermal delivery of melatonin,
CCCCCCCCOC(=O)[C@@H](N)Cc1ccccc1 [Phenylalanine octyl ester],more efficient and effective transdermal delivery of melatonin,
CCCCCCOC(=O)[C@@H]1CCCN1 [Proline hexyl ester],more efficient and effective transdermal delivery of melatonin,
CC(C)OC(=O)[C@@H]1CCCN1 [Proline isopropyl ester],more efficient and effective transdermal delivery of melatonin,
COC(=O)[C@@H]1CCCN1 [Proline methyl ester],more efficient and effective transdermal delivery of melatonin,
CC(C)OC(=O)[C@@H](N)Cc1ccc(O)cc1 [Tyrosine isopropyl ester],,transdermal delivery of melatonin compared to control composition (A) [3]: more efficient and effective transdermal delivery of melatonin
CCCCCOC(=O)[C@@H](N)Cc1ccc(O)cc1 [Tyrosine pentyl ester],,transdermal delivery of melatonin compared to control composition (A) [3]: more efficient and effective transdermal delivery of melatonin
CCCOC(=O)[C@@H](N)Cc1ccc(O)cc1 [Tyrosine propyl ester],,transdermal delivery of melatonin compared to control composition (A) [3]: more efficient and effective transdermal delivery of melatonin
